In the assay the test system is B-subtilis. Put plainly: inhibition zones on agar-B-subtilis plates, paper disc technique. Format: cell-based. The settings on record: hydrochlorides, read-out: inhibition zone diameter.

Structures are written as SMILES.

Consider `COc1cccc2c1C(=O)c1c(O)c3c(c(O)c1C2=O)C[C@@](O)(C(=O)CO)C[C@@H]3O[C@@H]1C[C@H](N)[C@@H](O)[C@H](C)O1` [4'-epi-adriamycin (β-anomer), 7-0-(3'-amino-2',3',6'-trideoxy-β-L-arabinohexopyranosyl)-adriamycinone], for which the zone of inhibition at 5 µg/disc (5 μg) is 15 mm. Moreover, the zone of inhibition at 10 µg/disc (10 μg) stood at 15.5 mm. In addition, the zone of inhibition at 15 µg/disc (15 μg) came out at 16 mm. Further, the zone of inhibition at 20 µg/disc (20 μg) is 17 mm.

For the origin of these results see patent US4098798A, “Adriamycins, process for their preparation and uses thereof” (Societa' Farmaceutici Italia S.p.A., priority 1974, dated 1978).
